Source: patent US20130338092A1, “COMPOUNDS AND METHODS FOR TARGETING LEUKEMIC STEM CELLS” (The Broad Institute, Inc., priority 2011, published 2013)
Entries after “also recorded” stand apart in the source; their conditions may differ.

How the values were obtained:
[1] = test system: HSPCs; experiment: Stromal pretreatment of primary MSC stroma, triple coculture, HSPCs; type: cell-based, murine; conditions: stroma pretreated three days, LSCs and HSPCs comingled
Experimental: In the context of primary MSC stroma (uncolored), both HSPCs (from actin-GFP mice (000329, Jackson Lab)) and LSC (dsRed+) populations were comingled together in a ratio of 2:1 within the same 384format wells. As in the stromal pretreatment screen with OP9 stroma, BRD7116 was added for three days to the stroma prior to the addition of the hematopoietic populations. 5 days after compound addition, wells were imaged in the red and green channels and total cells were counted using MetaXpress software from MDC.
This experiment was also performed in the context of primary MSC stroma. Both HSPCs and LSC populations were comingled together in the same wells, as a “triple” coculture.

[2] = test system: leukemic cobblestoning on pretreated OP9 stromal cells; experiment: Stromal pretreatment screen on OP9 stroma; type: cell-based, murine; conditions: compound on OP9 stroma for 3 days, washed before LSC plating
Experimental: OP9 cells were plated as in the primary screen. 24 hours later compounds were added to the stromal cultures and the plates were incubated for three days. […] As before, the plates were imaged after 6 days of coculture, and the level of cobblestoning was quantified. Any inhibition of cobblestoning observed under these modified assay conditions would presumably be due to the activity of the compound on the niche, and would allow the analysis of cell non-cell-autonomous mechanisms of leukemia growth inhibition.

## CC1(C)C(C(=O)Nc2ccc(S(=O)(=O)c3ccc(NC(=O)C4C(C)(C)C4(C)C)cc3)cc2)C1(C)C [BRD7116]
[1]
  numbers of comingled HSPCs on pretreated MSC stroma: a decrease in the numbers of comingled HSPCs was not observed
[2]
  leukemic cobblestoning after stromal pretreatment: decreased leukemic cobblestoning; also recorded: partially recapitulated the leukemia cobblestone inhibition
